Assay results from US7173049B2, “Fungicidal compositions” (Bayer Cropscience S.A., priority 2001, dated 2007).

System: Plasmopara viticola
Assay: Test against downy mildew of grapevine (preventive action)
Assay type: in vivo, Plasmopara viticola on grapevine plants (Chardonnay variety)
Settings: alone
Excerpt: In the compositions according to the invention, the compound (I)/compound (II) ratio is advantageously chosen so as to produce a synergistic effect. The term “synergistic effect” especially means the effect defined by S. R. Colby in an article entitled “Calcul des responses synergiques et antagonistes des combinaisons herbicides [Calculation of the synergistic and antagonist responses of herbicidal combinations]”, Weeds, (1967), 15, pages 20–22.
[formula] in which E represents the expected percentage of inhibition of the disease for the combination of the two fungicides at defined doses (for example equal to x and y, respectively), X is the percentage of inhibition observed for the disease by compound (I) at a defined dose (equal to x), Y is the percentage of inhibition observed for the disease by compound (II) at a defined dose (equal to y). When the percentage of inhibition observed for the combination is greater than E, there is a synergistic effect.
Test of a composition against downy mildew of grapevine (Plasmopara viticola; preventive action):
Grapevine plants (Chardonnay variety) are grown on sandy soil in plastic pots, with one plant per pot. The two-month-old plants (6 to 7 leaves developed) are sprayed with compound (I) and compound (II), either alone or as a mixture.
The fungicidal active materials, either alone or as a mixture, are applied at a rate of 500 liters/ha.
The compound (I)/compound (II) ratios studied are 1/10, 1/15 and 1/20.
Three days after the treatment, each plant is inoculated by spraying with an aqueous suspension of Plasmopara viticola spores obtained from contaminated leaves. The spore concentration is about 100 000 units per ml.
After contamination, the plants are incubated for two days at 18° C. under a saturated atmosphere, and then for 5 days at about 20° C. with a relative humidity of 90–100%.
Seven days after the contamination, the symptoms are evaluated in terms of extent of surface area on the underside of the leaves that are infected, relative to the untreated but contaminated plants.
The efficacy of the treatment is calculated using the Abbott formula below: […]
The concentrations of the fungicides alone or as a mixture giving 50%, 70% or 90% efficacy for each component, in the appropriate test, are determined on the basis of the model of the dose/response sigmoid curve and their corresponding confidence intervals. The results are analysed using the Tammes or Colby model.

Row | SMILES | % Efficacy (70 mg/l) [%] | % Efficacy (105 mg/l) [%] | % Efficacy (140 mg/l) [%] | % Efficacy (700 mg/l) [%] | % Efficacy (1050 mg/l) [%] | % Efficacy (1400 mg/l) [%] | % Efficacy (100 mg/l) [%] | % Efficacy (150 mg/l) [%] | % Efficacy (200 mg/l) [%] | % Efficacy (1000 mg/l) [%] | % Efficacy (1500 mg/l) [%] | % Efficacy (2000 mg/l) [%] | % Efficacy (10 mg/l, preventive, 7 days after contamination) [%]
1 | OP(O)O [Compound (IIa), phosphorous acid] | 0 | 0 | 0 | 4 | 50 | 52 | – | – | – | – | – | – | –
2 | CCO[PH](=O)O.[Al] [Compound (IIb), aluminium ethyl hydrogen phosphonate, reference compound] | – | – | – | – | – | – | 0 | 0 | 0 | 46 | 60 | 81 | –
3 | O=C(NCc1ncc(C(F)(F)F)cc1Cl)c1c(Cl)cccc1Cl [Compound (Ia), 2,6-dichloro-N-{[3-chloro-5-(tri-fluoromethyl)-2-pyridinyl]methyl}benzamide] | – | – | – | – | – | – | 100 | – | – | – | – | – | 77
